# From ChEMBL document CHEMBL5120942, “Designing a Small Fluorescent Inhibitor to Investigate Soluble Epoxide Hydrolase Engagement in Living Cells” (ACS Med Chem Lett, 2022)
# Active and inactive are the calls of the source. No cut-off for these calls is given here.
# How the values were obtained:
# [1] = biological target: T1, Bifunctional epoxide hydrolase 2 (Homo sapiens, UniProt P34913); assay: (§1) Inhibition of C-terminal domain of human sEH-H assessed as reduction in fluorescent naphthalene aldehyde formation using PHOME as substrate preincubated with enzyme for 30 mins followed by substrate addition and measured every minute for 45 mins by fluorescence based analysis
# T1 sequence (P34913 whole entry): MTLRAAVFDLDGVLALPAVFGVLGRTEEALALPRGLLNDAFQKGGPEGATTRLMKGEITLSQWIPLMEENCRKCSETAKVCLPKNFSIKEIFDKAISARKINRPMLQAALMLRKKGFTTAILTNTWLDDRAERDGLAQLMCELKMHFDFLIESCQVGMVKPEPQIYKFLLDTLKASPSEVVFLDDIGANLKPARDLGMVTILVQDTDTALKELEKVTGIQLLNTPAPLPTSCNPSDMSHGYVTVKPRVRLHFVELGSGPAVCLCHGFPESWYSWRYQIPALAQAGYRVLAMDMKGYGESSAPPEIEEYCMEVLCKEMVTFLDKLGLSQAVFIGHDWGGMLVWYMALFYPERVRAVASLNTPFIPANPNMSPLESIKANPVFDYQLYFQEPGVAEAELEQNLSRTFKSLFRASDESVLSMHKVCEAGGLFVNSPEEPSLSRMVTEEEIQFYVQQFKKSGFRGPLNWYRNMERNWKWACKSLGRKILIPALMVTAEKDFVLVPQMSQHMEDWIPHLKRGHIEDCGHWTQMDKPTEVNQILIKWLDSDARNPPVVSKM
# [2] = biological target: T1, Bifunctional epoxide hydrolase 2; assay: Displacement of (1R,3S)-N-(4-methoxy-2-(trifluoromethyl)benzyl)-3-((7-nitrobenzo[c][1,2,5]-oxadiazol-4-yl)amino)cyclohexane-1-carboxamide from NanoLuc-fused human sEH ( 1 to 555 residues) expressed in HEK293T cells incubated for 5 hrs by NanoBRET analysis; assay type: cell-based; settings: read-out: Ki(app)
# [3] = biological target: T1, Bifunctional epoxide hydrolase 2; assay: Inhibition of human sEH BacMam transduced HEK293 cells assessed as reduction in 14,15-DHET formation using 14,15-EET as substrate preincubated for 30 mins followed by susbtrate addition and measured after 90 mins by fluorescence polarization assay; assay type: cell-based
# [4] = biological target: T2, Bifunctional epoxide hydrolase 2 (Homo sapiens) (UniProt P34913); assay: as §1; settings: time 75.0 min, DDE = dose-dependent effect
# T2 sequence (whole entry): T1 sequence (P34913 whole entry)
# [5] = biological target: T3, Bifunctional epoxide hydrolase 2 (Mus musculus) (UniProt P34914); assay: (§2) Inhibition of C-terminal domain of mouse sEH-H assessed as reduction in fluorescent naphthalene aldehyde formation using PHOME as substrate preincubated with enzyme for 30 mins followed by substrate addition and measured every minute for 45 mins by fluorescence based analysis; settings: time 75.0 min, DDE = dose-dependent effect
# T3 sequence (whole entry): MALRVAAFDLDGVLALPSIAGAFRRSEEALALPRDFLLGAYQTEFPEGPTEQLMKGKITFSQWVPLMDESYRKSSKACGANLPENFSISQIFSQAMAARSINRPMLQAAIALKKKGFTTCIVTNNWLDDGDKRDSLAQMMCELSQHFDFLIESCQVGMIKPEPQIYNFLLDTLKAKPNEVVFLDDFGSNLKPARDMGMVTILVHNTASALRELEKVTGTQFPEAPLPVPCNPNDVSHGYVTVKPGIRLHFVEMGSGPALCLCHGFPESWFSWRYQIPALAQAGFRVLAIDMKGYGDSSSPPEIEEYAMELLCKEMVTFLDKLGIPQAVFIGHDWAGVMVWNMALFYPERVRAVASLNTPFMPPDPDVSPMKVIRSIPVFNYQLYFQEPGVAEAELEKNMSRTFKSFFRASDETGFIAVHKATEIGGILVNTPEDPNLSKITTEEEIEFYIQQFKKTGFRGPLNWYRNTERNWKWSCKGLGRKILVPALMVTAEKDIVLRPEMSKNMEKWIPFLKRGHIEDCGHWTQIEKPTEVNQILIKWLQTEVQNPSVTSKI
# [6] = biological target: T4, Bifunctional epoxide hydrolase 2 (Mus musculus, UniProt P34914); assay: as §2
# T4 sequence (P34914 whole entry): T3 sequence (whole entry)
# [7] = biological target: T2, Bifunctional epoxide hydrolase 2 (Homo sapiens); assay: Binding affinity to C-terminal domain of human sEH-H at 20 nM incubated for 1 hr by fluorescence polarization assay
# [8] = biological target: T1, Bifunctional epoxide hydrolase 2; assay: Binding affinity to NanoLuc-fused human sEH ( 1 to 555 residues) expressed in HEK293T cells incubated for 5 hrs by NanoBRET analysis; assay type: cell-based
# [9] = biological target: T2, Bifunctional epoxide hydrolase 2 (Homo sapiens); assay: Binding affinity to human full length sEH (1 to 555 residues) expressed in doxycycline-induced HEK293 cells at 300 nM incubated for 5 hrs by Hoechst 33342 staining based fluorescence microscopy; assay type: cell-based
# [10] = biological target: T3, Bifunctional epoxide hydrolase 2 (Mus musculus); assay: Binding affinity to sEH in C57BL/6J mouse astrocytes at 10 uM incubated for 5 hrs by DAPI staining based immunocytochemistry; assay type: cell-based; settings: Astrocyte
IC50 [1],Ki [2],IC50 [3],inhibition [4],inhibition [5],IC50 [6],Activity [7],Kd [8],Activity [9],Activity [10],Structure (SMILES)
2.6 nM,16 nM,34 nM,,,,,,,,O=C(O)CCCCCCCCCCNC(=O)NC12CC3CC(CC(C3)C1)C2
29.4 nM,583 nM,,,,,,,,,O=C(NCc1ccc(NS(=O)(=O)C2CC2)cc1C(F)(F)F)c1ccc2[nH]ccc2c1
,24 nM,,,,,,,,,CNc1nc(C)nc(N[C@H]2CCC[C@@H](C(=O)NCc3ccc(C#N)cc3C(F)(F)F)C2)n1 [GSK2256294]
1.43 nM,,,Dde,Dde,7.71 nM,Active,6 nM,Active,Active,COc1ccc(CNC(=O)[C@@H]2CCC[C@H](Nc3ccc([N+](=O)[O-])c4nonc34)C2)c(C(F)(F)F)c1
